Measured values: patent US8133849B2, “Herbicidal compounds” (Syngenta Limited, priority 2007, dated 2012)

How the values were obtained:
Test in all cases: Example B2 herbicidal action, post-emergence, pots in glasshouse, damage score 0-10
Assay type in all cases: in vivo
Settings in all cases: application post-emergence, rate 1000 g/ha, evaluated after 13 days
[1] = system: Echinochloa crus-galli
Outline: (§1)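 Damage was assessed 13 days after a post-emergence spray given to 8-day-old pot seedlings. The spray was an aqueous solution from an acetone/water (50:50) formulation with 0.5% Tween 20. Plants grew in a glasshouse at 24/16° C, 14 h light, 65% humidity, watered twice daily.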

[2] = system: Amaranthus retroflexus
Outline: as §1

[3] = system: Ipomea hederaceae
Outline: as §1

[4] = system: Solanum nigrum
Outline: as §1

[5] = system: Setaria faberi
Outline: as §1

Row | SMILES | ECHCG damage score (10=total damage to plant; 0=no damage to plant) [1] | AMARE damage score (10=total damage to plant; 0=no damage to plant) [2] | IPOHE damage score (10=total damage to plant; 0=no damage to plant) [3] | SOLNI damage score (10=total damage to plant; 0=no damage to plant) [4] | SETFA damage score (10=total damage to plant; 0=no damage to plant) [5]
1 | COc1ccc(F)c(C2=C(OC(=O)C(C)C)c3nccnc3N(CC(F)F)S2(=O)=O)c1 [Compound C138] | 1 | 0 | 2 | 7 | 0
2 | CCN1c2nccnc2C(OC(=O)C(C)(C)C)=C(c2cc(F)c(Cl)cc2Cl)S1(=O)=O [Compound C45] | 4 | 0 | 9 | 7 | 1
3 | CCSC(=O)OC1=C(c2cc(C(F)(F)F)ccc2Cl)S(=O)(=O)N(C)c2nccnc21 [Compound C89] | 6 | 7 | 9 | 10 | 1
4 | CC(C)C(=O)OC1=C(c2ccccc2Br)S(=O)(=O)N(CC(F)F)c2nccnc21 [Compound C39] | 4 | 9 | 9 | 10 | 4
5 | CC(C)C(=O)OC1=C(c2cc(C(F)(F)F)ccc2Cl)S(=O)(=O)N(CC(F)F)c2nccnc21 [Compound C91] | 6 | 9 | 10 | 9 | 3
6 | CC(C)C(=O)OC1=C(c2ccc(Cl)cc2Cl)S(=O)(=O)N(CC(F)(F)C(F)F)c2nccnc21 [Compound C122] | 2 | 5 | 6 | 9 | 3
7 | CCN1c2nccnc2C(OC(=O)C(C)(C)C)=C(c2c(Cl)ccc(Cl)c2Cl)S1(=O)=O [Compound C72] | 6 | 9 | 10 | 10 | 1
8 | CC(C)(C)C(=O)OC1=C(c2c(Cl)cccc2C(F)(F)F)S(=O)(=O)N(CC(F)F)c2nccnc21 [Compound C31] | 8 | 8 | 8 | 9 | 7
9 | O=S1(=O)C(c2cc(Cl)ccc2C(F)(F)F)=C(O)c2nccnc2N1CC(F)F [Compound D53] | 6 | 8 | 7 | 10 | 6
10 | O=S1(=O)C(c2cccc(Cl)c2Cl)=C(O)c2nccnc2N1CC(F)F [Compound D50] | 1 | 5 | 8 | 10 | 2
11 | CCN1c2nccnc2C(OC(=O)C(C)(C)C)=C(c2c(F)ccc(Cl)c2Cl)S1(=O)=O [Compound C16] | 3 | 7 | 7 | 10 | 0
12 | CC(C)(C)C(=O)OC1=C(c2cccc(C(F)(F)F)c2Cl)S(=O)(=O)N(CC(F)F)c2nccnc21 [Compound C74] | 4 | 7 | 7 | 6 | 3
13 | CC(C)C(=O)OC1=C(c2ccc(Br)cc2C(F)(F)F)S(=O)(=O)N(CC(F)F)c2nccnc21 [Compound C132] | 6 | 10 | 10 | 10 | 7
14 | CC(C)(C)C(=O)OC1=C(c2ccc(I)cc2Cl)S(=O)(=O)N(CC(F)F)c2nccnc21 [Compound C141] | 2 | 7 | 7 | 8 | 0
15 | CC(C)(C)C(=O)OC1=C(c2cc(Cl)ccc2C(F)(F)F)S(=O)(=O)N(CC(F)F)c2nccnc21 [Compound C111] | 6 | 8 | 9 | 9 | 6
16 | CC(C)(C)C(=O)OC1=C(c2ccc(Cl)cc2Cl)S(=O)(=O)N(CC(F)(F)F)c2nccnc21 [Compound C104] | 6 | 10 | 9 | 10 | 3
17 | O=S1(=O)C(c2ccc(Br)cc2C(F)(F)F)=C(O)c2nccnc2N1CC(F)F [Compound D56] | 7 | 10 | 10 | 9 | 6
18 | CCN1c2nccnc2C(O)=C(c2c(F)cccc2C(F)(F)F)S1(=O)=O [Compound D21] | 6 | 8 | 9 | 9 | 6
19 | CC(C)(C)C(=O)OC1=C(c2c(F)ccc(Br)c2Cl)S(=O)(=O)N(CC(F)F)c2nccnc21 [Compound C35] | 7 | 10 | 10 | 10 | 7
20 | CCN1c2nccnc2C(OC(=O)C(C)(C)C)=C(c2cccc(C(F)(F)F)c2Cl)S1(=O)=O [Compound C76] | 0 | 0 | 0 | 3 | 0
21 | CCN1c2nccnc2C(O)=C(c2c(C(F)(F)F)cccc2C(F)(F)F)S1(=O)=O [Compound D43] | 3 | 7 | 8 | 8 | 4
22 | Cc1ccc(C(F)(F)F)c(C2=C(OC(=O)C(C)(C)C)c3nccnc3N(CC(F)F)S2(=O)=O)c1 [Compound C148] | 3 | 7 | 8 | 9 | 2
23 | CC(C)(C)C(=O)OC1=C(c2cc(C(F)(F)F)ccc2C(F)(F)F)S(=O)(=O)N(CC(F)F)c2nccnc21 [Compound C44] | 9 | 10 | 10 | 10 | 6
24 | O=S1(=O)C(c2c(Cl)ccc(Cl)c2Cl)=C(O)c2nccnc2N1CC(F)F [Compound D17] | 9 | 10 | 10 | 10 | 9
25 | CC(C)C(=O)OC1=C(c2ccccc2[N+](=O)[O-])S(=O)(=O)N(CC(F)F)c2nccnc21 [Compound C65] | 0 | 2 | 1 | 2 | 2
26 | CC(C)(C)C(=O)OC1=C(c2c(Cl)ccc(Cl)c2C(F)(F)F)S(=O)(=O)N(CC(F)F)c2nccnc21 [Compound C52] | 7 | 9 | 10 | 8 | 8
